Results taken from ChEMBL document CHEMBL1201862, “PubChem BioAssay data set” (2004).
Each block holds one molecule with its values, some of them ahead of it. Activity calls are given as the source filed them. Unless noted, the rule behind the calls is not given here.

How the values were obtained:
Candida albicans = assay: Candida growth inhibition combined with fluconazole – CaCi-2 strain, Alamar Blue, dry powder, set 3, dose response (AID 488907); assay type: functional, organism-based
Jurkat = assay: SAR Analysis of small molecule inhibitors of T-cell specific antigen receptor-induced NF-kB activation in a Jurkat cell line using a luminescence assay - Set 2. [Related pubchem assays (depositor defined):AID435003, AID435012, AID465]; assay type: functional, cell-based; conditions: Homo sapiens
HEK293 [1] = assay: SAR Analysis of small molecule inhibitors of T-cell specific antigen receptor-induced NF-kB activation in a HEK-293T cell line using a luminescence assay - Set 2. [Related pubchem assays (depositor defined):AID435003, AID435012, AID489026]; assay type: functional, cell-based; conditions: Homo sapiens
HEK293 [2] = assay: HEK293T cell viability loss, resazurin readout – resazurin fluorescence, cytotoxicity control for NF-kB activator project, SAR follow-up (AID 493251); assay type: functional, cell-based; conditions: Homo sapiens
[3] = molecular target: Sphingosine 1-phosphate receptor 2 (Homo sapiens, UniProt O95136); assay: (§1) Late-stage fluorescence-based dose-response cell-based assay to identify agonists of the Sphingosine 1-Phosphate Receptor 4 (S1P4): Sphingosine 1-Phosphate Receptor 2 (S1P2) counterscreen assay. [Related pubchem assays (depositor defined):AID1509, AID1523, AID1563, AID1686, AID1701, AID1801, AID463107, AID463225, AID504400]; assay type: functional
Sphingosine 1-phosphate receptor 2, sequence (O95136 whole entry): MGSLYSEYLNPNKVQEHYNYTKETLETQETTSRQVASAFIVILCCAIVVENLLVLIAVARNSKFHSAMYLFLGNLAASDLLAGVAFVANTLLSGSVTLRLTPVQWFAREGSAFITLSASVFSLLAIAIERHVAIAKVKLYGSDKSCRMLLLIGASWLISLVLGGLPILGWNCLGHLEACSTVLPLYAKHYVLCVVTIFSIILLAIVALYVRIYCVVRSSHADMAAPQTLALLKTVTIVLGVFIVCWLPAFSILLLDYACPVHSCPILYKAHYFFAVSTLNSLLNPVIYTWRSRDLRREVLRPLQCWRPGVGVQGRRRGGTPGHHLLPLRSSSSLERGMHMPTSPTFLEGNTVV

[4] = Late-stage assay provider results from the probe development effort to identify agonists of the Sphingosine 1-Phosphate Receptor 4 (S1P4): luminescence-based cell-based dose response assay to determine cytotoxicity of agonist compounds. [Related pubchem assays (depositor defined):AID1509, AID1523, AID1563, AID1686, AID1701, AID1801, AID463107, AID463225, AID504400]; assay type: functional
[5] = molecular target: Sphingosine 1-phosphate receptor 5 (Homo sapiens, UniProt Q9H228); assay: as §1, with “5 (S1P5)” for “2 (S1P2)”; assay type: functional
Sphingosine 1-phosphate receptor 5, sequence (Q9H228 whole entry): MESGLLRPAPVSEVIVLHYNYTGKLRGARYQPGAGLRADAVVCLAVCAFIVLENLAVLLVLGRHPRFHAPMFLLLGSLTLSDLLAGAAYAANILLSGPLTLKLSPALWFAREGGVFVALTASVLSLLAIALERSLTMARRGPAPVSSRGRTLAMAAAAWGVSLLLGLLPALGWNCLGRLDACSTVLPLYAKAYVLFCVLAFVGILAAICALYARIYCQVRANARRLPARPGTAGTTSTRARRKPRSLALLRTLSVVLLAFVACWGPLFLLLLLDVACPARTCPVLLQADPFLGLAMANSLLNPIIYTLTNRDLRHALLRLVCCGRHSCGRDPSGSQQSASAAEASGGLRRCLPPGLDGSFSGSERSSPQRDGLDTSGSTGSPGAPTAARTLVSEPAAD

[6] = molecular target: Sphingosine 1-phosphate receptor 1 (Homo sapiens, UniProt P21453); assay: as §1, with “1 (S1P1)” for “2 (S1P2)”; assay type: functional
Sphingosine 1-phosphate receptor 1, sequence (P21453 whole entry): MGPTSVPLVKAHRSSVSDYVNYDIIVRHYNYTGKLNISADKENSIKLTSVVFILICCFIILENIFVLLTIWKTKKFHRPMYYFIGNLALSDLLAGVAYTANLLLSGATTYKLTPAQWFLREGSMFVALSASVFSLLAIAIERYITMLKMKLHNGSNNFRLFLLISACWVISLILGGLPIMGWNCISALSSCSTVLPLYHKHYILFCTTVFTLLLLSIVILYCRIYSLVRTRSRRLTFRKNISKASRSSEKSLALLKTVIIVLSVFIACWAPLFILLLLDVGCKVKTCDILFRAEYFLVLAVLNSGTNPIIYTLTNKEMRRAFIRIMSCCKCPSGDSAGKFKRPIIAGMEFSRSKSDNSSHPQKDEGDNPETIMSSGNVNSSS

[7] = molecular target: Sphingosine 1-phosphate receptor 3 (Homo sapiens, UniProt Q99500); assay: as §1, with “3 (S1P3)” for “2 (S1P2)”; assay type: functional
Sphingosine 1-phosphate receptor 3, sequence (Q99500 whole entry): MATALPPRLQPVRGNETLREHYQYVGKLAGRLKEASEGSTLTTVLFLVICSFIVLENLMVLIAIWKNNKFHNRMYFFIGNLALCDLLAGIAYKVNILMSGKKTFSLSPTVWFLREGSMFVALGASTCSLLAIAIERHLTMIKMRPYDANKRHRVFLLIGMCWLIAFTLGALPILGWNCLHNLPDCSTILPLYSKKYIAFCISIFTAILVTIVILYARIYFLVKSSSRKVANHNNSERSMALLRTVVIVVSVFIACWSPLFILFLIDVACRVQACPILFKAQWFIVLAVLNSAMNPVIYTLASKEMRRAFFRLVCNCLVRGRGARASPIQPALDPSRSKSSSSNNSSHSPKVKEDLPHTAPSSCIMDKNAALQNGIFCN

[8] = molecular target: Sphingosine 1-phosphate receptor 4 (Homo sapiens, UniProt O95977); assay: Late-stage fluorescence dose response cell-based counterscreening assay for agonists of the Sphingosine 1-Phosphate Receptor 4 (S1P4): inhibition by S1P4-selective antagonist. [Related pubchem assays (depositor defined):AID1509, AID1523, AID1563, AID1686, AID1701, AID1801, AID463107, AID463118, AID463119, AID463122, AID463123, AID463129, AID504400]; assay type: functional
Sphingosine 1-phosphate receptor 4, sequence (O95977 whole entry): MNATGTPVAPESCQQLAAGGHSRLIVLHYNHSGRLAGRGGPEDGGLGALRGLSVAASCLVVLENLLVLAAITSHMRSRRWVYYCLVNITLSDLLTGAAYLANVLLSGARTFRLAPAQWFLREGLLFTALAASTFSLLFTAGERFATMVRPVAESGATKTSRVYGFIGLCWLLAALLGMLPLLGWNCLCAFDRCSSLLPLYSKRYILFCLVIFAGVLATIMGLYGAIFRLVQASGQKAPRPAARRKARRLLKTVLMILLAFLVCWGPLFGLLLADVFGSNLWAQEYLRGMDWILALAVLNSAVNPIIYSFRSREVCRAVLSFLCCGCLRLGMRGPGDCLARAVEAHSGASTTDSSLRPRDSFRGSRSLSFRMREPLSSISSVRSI

Compound: N#Cc1cccnc1N1CCN(C(=O)c2ccc(Cl)cc2)CC1
AC50 (Candida albicans): 0.611 µM (active)

Compound: CCOc1ccc(-c2nc(CS(=O)(=O)CC(=O)NCc3ccc(F)cc3)c(C)o2)cc1
IC50 (Jurkat): > 79 µM (inactive)
IC50 (HEK293 [1]): > 80 µM (inactive)
IC50 (HEK293 [2]): > 80 µM (inactive)

EC50 [3]: > 50 µM (inactive)
EC50 [5]: > 50 µM (inactive)
EC50 [6]: > 50 µM (inactive)
EC50 [7]: > 50 µM (inactive)
IC50 [8]: 0.83 µM (active)
Compound: Clc1ccc(OCCOc2ccc(Br)nc2Br)c(Cl)c1
CC50 [4]: > 20 µM (inactive)
